Measured values published in ChEMBL document CHEMBL1132407, “Combinatorial library of serine and cysteine protease inhibitors that interact with both the S and S' binding sites” (J Med Chem, 1999).

Columns and labels:
Plasminogen = Plasminogen (Homo sapiens, UniProt P00747); assay: Inhibitory activity against plasmin
Papain = molecular target: T1, Papain (Carica papaya, UniProt P00784); assay: Inhibitory activity against papain
T1 sequence (P00784 whole entry): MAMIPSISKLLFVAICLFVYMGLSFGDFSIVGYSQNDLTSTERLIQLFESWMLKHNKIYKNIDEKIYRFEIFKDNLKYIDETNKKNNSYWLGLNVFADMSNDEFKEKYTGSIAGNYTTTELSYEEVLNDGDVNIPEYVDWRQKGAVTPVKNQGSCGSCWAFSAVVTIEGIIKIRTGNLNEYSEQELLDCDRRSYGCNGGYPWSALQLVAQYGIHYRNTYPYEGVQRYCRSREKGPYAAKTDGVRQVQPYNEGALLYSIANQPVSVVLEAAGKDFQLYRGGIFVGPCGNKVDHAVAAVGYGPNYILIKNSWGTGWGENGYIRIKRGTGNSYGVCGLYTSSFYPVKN

Cathepsin B = Cathepsin B (Homo sapiens, UniProt P07858); assay: Inhibitory activity against Cathepsin B

Sequence of Plasminogen (P00747 97-580 limits assumed): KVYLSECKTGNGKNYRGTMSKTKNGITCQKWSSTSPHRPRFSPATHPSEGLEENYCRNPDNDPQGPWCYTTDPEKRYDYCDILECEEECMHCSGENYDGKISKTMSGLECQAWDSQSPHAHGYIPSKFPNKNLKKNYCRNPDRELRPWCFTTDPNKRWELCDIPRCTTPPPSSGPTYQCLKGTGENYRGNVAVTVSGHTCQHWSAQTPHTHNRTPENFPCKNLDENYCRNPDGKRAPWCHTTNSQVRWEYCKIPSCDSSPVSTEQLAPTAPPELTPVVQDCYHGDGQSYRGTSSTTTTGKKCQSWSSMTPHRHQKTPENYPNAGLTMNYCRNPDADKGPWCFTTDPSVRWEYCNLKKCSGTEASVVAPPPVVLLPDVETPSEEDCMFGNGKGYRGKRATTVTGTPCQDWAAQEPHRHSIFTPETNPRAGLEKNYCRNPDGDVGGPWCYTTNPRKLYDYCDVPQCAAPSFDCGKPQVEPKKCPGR
Sequence of Plasminogen (P00747 581-810 limits assumed): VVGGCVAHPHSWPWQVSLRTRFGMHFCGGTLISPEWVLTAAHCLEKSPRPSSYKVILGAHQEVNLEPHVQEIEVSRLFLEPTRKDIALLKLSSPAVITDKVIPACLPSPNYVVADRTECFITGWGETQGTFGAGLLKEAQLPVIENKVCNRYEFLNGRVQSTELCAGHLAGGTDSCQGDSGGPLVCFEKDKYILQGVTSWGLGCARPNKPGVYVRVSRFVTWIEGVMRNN

Compound: O=C(CC[C@H]1CCC[C@@H](NC(=O)[C@H](Cc2c[nH]c3ccccc23)NC(=O)OCc2ccccc2)C1=O)N[C@@H](Cc1ccccc1)C(=O)O (stereo in doubt; 16A)
- Ki (Plasminogen): 100 µM
- Ki (Papain): 250 µM

Compound: O=C(CC[C@H]1CCC[C@@H](NC(=O)[C@H](Cc2ccccc2)NC(=O)OCc2ccccc2)C1=O)N[C@@H](Cc1ccccc1)C(=O)O
- Ki (Plasminogen): 3000 µM
- Ki (Cathepsin B): 1100 µM
- Ki (Papain): 870 µM

Compound: O=C(CC[C@H]1CCC[C@@H](NC(=O)[C@H](Cc2c[nH]c3ccccc23)NC(=O)OCc2ccccc2)C1=O)N[C@@H](Cc1ccccc1)C(=O)O (stereo in doubt; 16B)
- Ki (Plasminogen): 150 µM

Compound: O=C(CC[C@H]1CCC[C@@H](NC(=O)[C@H](Cc2c[nH]c3ccccc23)NC(=O)OCc2ccccc2)C1=O)N[C@@H](Cc1c[nH]c2ccccc12)C(=O)O (stereo in doubt)
- Ki (Plasminogen): 10 µM

Compound: O=C(CC[C@H]1CCC[C@@H](NC(=O)[C@H](Cc2ccccc2)NC(=O)OCc2ccccc2)C1=O)N[C@@H](Cc1c[nH]c2ccccc12)C(=O)O
- Ki (Plasminogen): 420 µM
- Ki (Papain): 490 µM

Compound: O=C(CC[C@H]1CCC[C@@H](NC(=O)[C@H](Cc2c[nH]c3ccccc23)NC(=O)OCc2ccccc2)C1=O)N[C@@H](Cc1c[nH]c2ccccc12)C(=O)O (stereo in doubt; 15A)
- Ki (Plasminogen): 5 µM
- Ki (Papain): 380 µM
